Laboratory results published in PubChem BioAssay (NCI).
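Assay format: 96-well plates, 48-hour exposure. Here, GI50 denotes the concentration required for 50% inhibition of growth. At the TGI there is no net growth.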

Tests used:
Assay in all cases: inhibition of tumour cell growth, NCI panel, 48 h
[1] = test system: SF-295 CNS
[2] = test system: UACC-257 melanoma
[3] = test system: HT29 colon
[4] = test system: LOX IMVI melanoma
[5] = test system: SNB-75 CNS
[6] = test system: ACHN renal
[7] = test system: CAKI-1 renal
[8] = test system: A549 NSCLC
[9] = test system: RPMI-8226 leukemia
[10] = test system: NCI-H460 lung
[11] = test system: K-562 leukemia
[12] = test system: OVCAR-5 ovarian
[13] = test system: NCI-H23 lung
[14] = test system: U251 CNS
[15] = test system: M14 melanoma
[16] = test system: SF-268 CNS
[17] = test system: HCT-116 colon
[18] = test system: IGROV1 ovarian
[19] = test system: SF-539 CNS
[20] = test system: OVCAR-8 ovarian
[21] = test system: OVCAR-4 ovarian
[22] = test system: MDA-MB-435
[23] = test system: NCI-H522 lung
[24] = test system: SK-MEL-28 melanoma
[25] = test system: RXF 393 renal
[26] = test system: NCI-H226 lung
[27] = test system: SK-OV-3 ovarian
[28] = test system: HCC-2998 colon
[29] = test system: HOP-62 NSCLC
[30] = test system: MOLT-4 leukemia
[31] = test system: MCF7 breast
[32] = test system: SN12C renal
[33] = test system: HL-60(TB) leukemia
[34] = test system: KM12 colon
[35] = test system: SR leukemia
[36] = test system: BT-549 breast
[37] = test system: A498 renal
[38] = test system: OVCAR-3 ovarian
[39] = test system: EKVX NSCLC
[40] = test system: UACC-62 melanoma
[41] = test system: SK-MEL-2 melanoma
[42] = test system: HCT-15 colon
[43] = test system: SK-MEL-5 melanoma
[44] = test system: MALME-3M melanoma
[45] = test system: DU-145 prostate
[46] = test system: HOP-92 NSCLC
[47] = test system: NCI/ADR-RES ovarian
[48] = test system: SW-620 colon
[49] = test system: UO-31 renal
[50] = test system: PC-3 prostate
[51] = test system: TK-10 renal
[52] = test system: HS 578T breast
[53] = test system: SNB-19 CNS
[54] = test system: MDA-MB-231 breast
[55] = test system: 786-0 renal
[56] = test system: COLO 205 colon
[57] = test system: CCRF-CEM leukemia
[58] = test system: T-47D breast

`CN1C(=O)C(=Cc2cn(Cc3ccccc3)c3ccccc23)C(=O)N(C)C1=O` showed a GI50 [1] of 732 nM, a TGI [1] greater than 100000 nM and a GI50 [2] of 9820 nM. For the same compound, the TGI [2] was greater than 100000 nM, the GI50 [3] was greater than 78800 nM and the TGI [3] was greater than 100000 nM. The GI50 [4] was 35300 nM, the TGI [4] was greater than 100000 nM and the GI50 [5] was 34200 nM. The TGI [5] was greater than 100000 nM, the GI50 [6] was 51800 nM and the TGI [6] was greater than 100000 nM. The TGI [7] was greater than 25500 nM, the GI50 [8] was greater than 39700 nM and the TGI [8] was greater than 100000 nM. For the same compound, the GI50 [9] was 26900 nM, the TGI [9] was greater than 100000 nM and the GI50 [10] was 1240 nM. The TGI [10] was greater than 100000 nM, the GI50 [11] was 5080 nM and the TGI [11] was greater than 100000 nM. The GI50 [12] was 234 nM, the TGI [12] was 820 nM and the GI50 [13] was 44200 nM. The TGI [13] was greater than 100000 nM, the GI50 [14] was 18200 nM and the TGI [14] was greater than 71300 nM. The GI50 [15] was 48700 nM, the TGI [15] was greater than 100000 nM and the GI50 [16] was greater than 86600 nM. For the same compound, the TGI [16] was greater than 100000 nM, the GI50 [17] was 11100 nM and the TGI [17] was greater than 100000 nM. It also gave a GI50 [18] of 1640 nM, a GI50 [19] of 47300 nM and a TGI [19] greater than 100000 nM. The GI50 [20] was 35800 nM, the TGI [20] was greater than 82600 nM and the GI50 [21] was 5850 nM. It also gave a TGI [21] greater than 100000 nM, a GI50 [22] greater than 83300 nM and a TGI [22] greater than 100000 nM. For the same compound, the GI50 [23] was greater than 100000 nM, the TGI [23] was greater than 100000 nM and the GI50 [24] was greater than 70200 nM. For the same compound, the TGI [24] was greater than 100000 nM, the GI50 [25] was 23100 nM and the TGI [25] was greater than 100000 nM. For the same compound, the GI50 [26] was 3460 nM, the TGI [26] was 27800 nM and the GI50 [27] was 6160 nM. The TGI [27] was greater than 100000 nM, the GI50 [28] was greater than 33700 nM and the TGI [28] was greater than 70800 nM. The GI50 [29] was 43000 nM, the TGI [29] was greater than 100000 nM and the GI50 [30] was 68300 nM. It also gave a TGI [30] greater than 100000 nM, a GI50 [31] of 21400 nM and a TGI [31] greater than 100000 nM. For the same compound, the GI50 [32] was 54800 nM, the TGI [32] was greater than 100000 nM and the GI50 [33] was greater than 43400 nM. The TGI [33] was greater than 100000 nM, the GI50 [34] was 52400 nM and the TGI [34] was greater than 100000 nM. The GI50 [35] was 43100 nM, the TGI [35] was greater than 100000 nM and the GI50 [36] was 56500 nM. The TGI [36] was greater than 100000 nM, the GI50 [37] was 518 nM and the TGI [37] was 1190 nM. For the same compound, the GI50 [38] was 20800 nM, the TGI [38] was greater than 100000 nM and the GI50 [39] was 35800 nM. It also gave a TGI [39] greater than 100000 nM, a GI50 [40] of 1870 nM and a TGI [40] greater than 35300 nM. For the same compound, the TGI [41] was greater than 67600 nM, the GI50 [42] was greater than 95600 nM and the TGI [42] was greater than 100000 nM. For the same compound, the GI50 [43] was 25700 nM, the TGI [43] was greater than 100000 nM and the GI50 [44] was 42100 nM. The TGI [44] was greater than 100000 nM, the GI50 [45] was 87200 nM and the TGI [45] was greater than 100000 nM. For the same compound, the GI50 [46] was 14700 nM, the TGI [46] was greater than 70900 nM and the GI50 [47] was greater than 70000 nM. For the same compound, the TGI [47] was greater than 100000 nM, the GI50 [48] was greater than 92400 nM and the TGI [48] was greater than 100000 nM. For the same compound, the GI50 [49] was greater than 38800 nM, the TGI [49] was greater than 81400 nM and the GI50 [50] was 27000 nM. For the same compound, the TGI [50] was greater than 100000 nM, the GI50 [51] was 4280 nM and the TGI [51] was 56500 nM. For the same compound, the GI50 [52] was 17800 nM, the TGI [52] was greater than 81500 nM and the GI50 [53] was greater than 100000 nM. The TGI [53] was greater than 100000 nM, the GI50 [54] was 54100 nM and the TGI [54] was greater than 100000 nM. It also gave a GI50 [55] of 57700 nM, a TGI [55] greater than 100000 nM and a GI50 [56] of 712 nM. For the same compound, the TGI [56] was 6670 nM, the GI50 [57] was greater than 77600 nM and the TGI [57] was greater than 100000 nM. For the same compound, the GI50 [58] was 3910 nM and the TGI [58] was greater than 75300 nM.
Compound `CSc1n(Cc2ccc3ccccc3c2)c(C)c[n+]1Cc1ccc2ccccc2c1` has a GI50 [1] of 1340 nM, a TGI [1] of 2690 nM and a GI50 [2] of 325 nM. For the same compound, the TGI [2] was 1120 nM, the GI50 [3] was 431 nM and the TGI [3] was 1600 nM. It also gave a GI50 [4] of 591 nM, a TGI [4] of 1900 nM and a GI50 [5] of 342 nM. The TGI [5] was 1490 nM, the GI50 [6] was 1900 nM and the TGI [6] was 3770 nM. It also gave a GI50 [7] of 1490 nM, a TGI [7] of 2970 nM and a GI50 [8] of 1280 nM. For the same compound, the TGI [8] was 2730 nM, the GI50 [9] was 287 nM and the TGI [9] was 1360 nM. It also gave a GI50 [10] of 802 nM, a TGI [10] of 2180 nM and a GI50 [11] of 414 nM. It also gave a TGI [11] of 2360 nM, a GI50 [12] of 1200 nM and a TGI [12] of 2530 nM. It also gave a GI50 [13] of 385 nM, a TGI [13] of 1640 nM and a GI50 [14] of 422 nM. The TGI [14] was 1650 nM, the GI50 [15] was 608 nM and the TGI [15] was 2080 nM. For the same compound, the GI50 [16] was 690 nM, the TGI [16] was 2130 nM and the GI50 [17] was 615 nM. For the same compound, the TGI [17] was 1860 nM, the GI50 [18] was 490 nM and the TGI [18] was 1800 nM. It also gave a GI50 [19] of 797 nM, a TGI [19] of 2120 nM and a GI50 [20] of 417 nM. For the same compound, the TGI [20] was 1600 nM, the GI50 [21] was 289 nM and the TGI [21] was 1040 nM. It also gave a GI50 [22] of 436 nM, a TGI [22] of 1570 nM and a GI50 [23] of 311 nM. The TGI [23] was 1300 nM, the GI50 [24] was 854 nM and the TGI [24] was 2190 nM. For the same compound, the GI50 [25] was 938 nM, the TGI [25] was 2470 nM and the GI50 [26] was 1310 nM. For the same compound, the TGI [26] was 3180 nM, the GI50 [27] was 1180 nM and the TGI [27] was 2610 nM. It also gave a GI50 [28] of 535 nM, a TGI [28] of 1820 nM and a GI50 [29] of 1390 nM. The TGI [29] was 3010 nM, the GI50 [30] was 1110 nM and the TGI [30] was 3010 nM. The GI50 [31] was 505 nM, the TGI [31] was 1880 nM and the GI50 [32] was 523 nM. The TGI [32] was 1870 nM, the GI50 [33] was 319 nM and the TGI [33] was 1120 nM. For the same compound, the GI50 [34] was 593 nM, the TGI [34] was 1960 nM and the GI50 [35] was 363 nM. The TGI [35] was 2520 nM, the GI50 [36] was 569 nM and the TGI [36] was 1810 nM. For the same compound, the GI50 [37] was 1130 nM, the TGI [37] was 2930 nM and the GI50 [38] was 445 nM. It also gave a TGI [38] of 1630 nM, a GI50 [39] of 1400 nM and a TGI [39] of 3830 nM. For the same compound, the GI50 [40] was 519 nM, the TGI [40] was 1820 nM and the GI50 [41] was 486 nM. It also gave a TGI [41] of 1730 nM, a GI50 [42] of 2120 nM and a TGI [42] of 4750 nM. The GI50 [43] was 389 nM, the TGI [43] was 1320 nM and the GI50 [44] was 472 nM. For the same compound, the TGI [44] was 1730 nM, the GI50 [45] was 1070 nM and the TGI [45] was 2390 nM. It also gave a GI50 [46] of 255 nM, a TGI [46] of 1280 nM and a GI50 [47] of 12800 nM. The TGI [47] was 31300 nM, the GI50 [48] was 852 nM and the TGI [48] was 2260 nM. For the same compound, the GI50 [49] was 1600 nM, the TGI [49] was 3840 nM and the GI50 [50] was 563 nM. The TGI [50] was 2170 nM, the GI50 [51] was 1410 nM and the TGI [51] was 2880 nM. The GI50 [52] was 1020 nM, the TGI [52] was 2700 nM and the GI50 [53] was 510 nM. It also gave a TGI [53] of 1720 nM, a GI50 [54] of 484 nM and a TGI [54] of 1740 nM. For the same compound, the GI50 [55] was 1530 nM, the TGI [55] was 2970 nM and the GI50 [56] was 352 nM. For the same compound, the TGI [56] was 1340 nM, the GI50 [57] was 571 nM and the TGI [57] was 2310 nM. It also gave a GI50 [58] of 408 nM and a TGI [58] of 2100 nM.
